How the values were obtained:
Assay in all cases: Test B pre-/postemergence plant response
Assay type in all cases: in vivo
[1] = tested on: surinam grass (Brachiaria decumbens); settings: for Surinam Grass plant response rating: 8 g ai/ha
In short: (§1)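 Visual scoring from 0 (no effect) to 100 (complete control) against untreated controls was done 13 to 15 days after greenhouse treatment. Chemicals were formulated in a surfactant-containing non-phytotoxic solvent and applied to soil preemergence or to 1- to 4-leaf (2-18 cm) plants postemergence.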

[2] = tested on: Italian ryegrass (Lolium multiflorum); settings: for Ryegrass, Italian plant response rating: 8 g ai/ha
In short: as §1

[3] = tested on: kochia (Kochia scoparia); settings: for Kochia plant response rating: 8 g ai/ha
In short: as §1

[4] = tested on: common ragweed (Ambrosia elation); settings: for Ragweed plant response rating: 8 g ai/ha
In short: as §1

[5] = tested on: eastern black (E.B.) nightshade (Solanum ptycanthum); settings: Preemergence
In short: as §1

[6] = tested on: Russian thistle (Salsola iberica); settings: Preemergence
In short: as §1

[7] = tested on: morningglory (Ipomoea coccinea); settings: for Morningglory plant response rating: 8 g ai/ha
In short: as §1

[8] = tested on: cocklebur (Xanthium strumarium); settings: for Cocklebur plant response rating: 8 g ai/ha
In short: as §1

[9] = tested on: wild oat (Avena fatua); settings: for Oat, Wild plant response rating: 8 g ai/ha
In short: as §1

[10] = tested on: yellow nutsedge (Cyperus esculentus); settings: for Nutsedge, Yellow plant response rating: 8 g ai/ha
In short: as §1

[11] = tested on: corn (Zea mays); settings: for Corn plant response rating: 8 g ai/ha
In short: as §1

[12] = tested on: lambsquarters (Chenopodium album); settings: for Lambsquarters plant response rating: 8 g ai/ha
In short: as §1

[13] = tested on: catchweed bedstraw (Galium aparine); settings: Preemergence
In short: as §1

[14] = tested on: green foxtail (Setaria viridis); settings: for Foxtail, Green plant response rating: 8 g ai/ha
In short: as §1

[15] = Postemergence, 16 g ai/ha, scale 0 to 100
[16] = Postemergence, 62 g ai/ha, scale 0 to 100, 0 no effect, 100 complete control
[17] = Preemergence, 16 g ai/ha, scale 0 to 100 (0 no effect, 100 complete control)
[18] = Preemergence, 31 g ai/ha, scale 0 to 100 (0 no effect, 100 complete control)
[19] = Postemergence, 31 g ai/ha, scale 0 to 100, 0 no effect, 100 complete control
[20] = Preemergence, 62 g ai/ha, scale 0 to 100
[21] = Preemergence, 31 g ai/ha, 0 to 100 scale, 0 no effect, 100 complete control
[22] = 16 g ai/ha, scale 0 to 100 (0 no effect, 100 complete control)
[23] = 31 g ai/ha, scale 0 to 100 (0 no effect, 100 complete control)

## CCc1cc(-c2ccc(Cl)cc2)nn1-c1c(OC(=O)C(C)(C)C)cnn(C)c1=O [Compound 40]
[1]; postemergence, 0-100 scale
  Surinam Grass plant response rating: 98
[1]; [15]
  Plant response rating, Surinam Grass: 100
[1]; [16]
  Plant response rating, Surinam Grass: 100
[1]; [17]
  Plant response rating, Surinam Grass: 100
[1]; [18]
  Plant response rating, Surinam Grass: 100
[1]; Preemergence, 62 g ai/ha, 0 to 100 scale, 0 no effect, 100 complete control
  Plant response rating, Surinam Grass: 100
[1]; Preemergence, scale 0 to 100
  Surinam Grass plant response rating: 80
[2]; postemergence, 0-100 scale
  Ryegrass, Italian plant response rating: 80
[2]; [15]
  Plant response rating, Ryegrass, Italian: 100
[2]; [19]
  Plant response rating, Ryegrass, Italian: 100
[2]; [16]
  Plant response rating, Ryegrass, Italian: 100
[2]; [17]
  Plant response rating, Ryegrass, Italian: 95
[2]; [18]
  Plant response rating, Ryegrass, Italian: 95
[2]; [20]
  Plant response rating, Ryegrass, Italian: 100
[2]; Preemergence, scale 0 to 100
  Ryegrass, Italian plant response rating: 80
[3]; postemergence, 0-100 scale
  Kochia plant response rating: 0
[3]; [15]
  Plant response rating, Kochia: 0
[3]; [19]
  Plant response rating, Kochia: 0
[3]; [16]
  Plant response rating, Kochia: 0
[3]; [17]
  Plant response rating, Kochia: 0
[3]; [21]
  Plant response rating, Kochia: 0
[3]; [20]
  Plant response rating, Kochia: 0
[3]; Preemergence, scale 0 to 100
  Kochia plant response rating: 0
[4]; postemergence, 0-100 scale
  Ragweed plant response rating: 0
[4]; [15]
  Plant response rating, Ragweed: 0
[4]; [19]
  Plant response rating, Ragweed: 0
[4]; [16]
  Plant response rating, Ragweed: 0
[4]; [17]
  Plant response rating, Ragweed: 0
[4]; [18]
  Plant response rating, Ragweed: 0
[4]; [20]
  Plant response rating, Ragweed: 0
[4]; Preemergence, scale 0 to 100
  Ragweed plant response rating: 0
[5]; [22]
  Plant response rating, Nightshade, E. B.: 0
[5]; [23]
  Plant response rating, Nightshade, E. B.: 0
[5]; 62 g ai/ha, scale 0 to 100
  Plant response rating, Nightshade, E. B.: 0
[5]; 8 g ai/ha, scale 0 to 100
  Nightshade, E. B. plant response rating: 0
[6]; [22]
  Plant response rating, Russian Thistle: 0
[6]; [23]
  Plant response rating, Russian Thistle: 0
[6]; 62 g ai/ha, scale 0 to 100
  Plant response rating, Russian Thistle: 0
[6]; 8 g ai/ha, scale 0 to 100
  Russian Thistle plant response rating: 0
[7]; postemergence, 0-100 scale
  Morningglory plant response rating: 0
[7]; [15]
  Plant response rating, Morningglory: 0
[7]; [19]
  Plant response rating, Morningglory: 0
[7]; [16]
  Plant response rating, Morningglory: 0
[7]; [17]
  Plant response rating, Morningglory: 0
[7]; [18]
  Plant response rating, Morningglory: 0
[7]; [20]
  Plant response rating, Morningglory: 0
[7]; Preemergence, scale 0 to 100
  Morningglory plant response rating: 0
[8]; postemergence, 0-100 scale
  Cocklebur plant response rating: 0
[8]; [15]
  Plant response rating, Cocklebur: 0
[8]; [19]
  Plant response rating, Cocklebur: 0
[8]; [16]
  Plant response rating, Cocklebur: 0
[8]; [17]
  Plant response rating, Cocklebur: 0
[8]; [21]
  Plant response rating, Cocklebur: 0
[8]; [20]
  Plant response rating, Cocklebur: 0
[8]; Preemergence, scale 0 to 100
  Cocklebur plant response rating: 0
[9]; postemergence, 0-100 scale
  Oat, Wild plant response rating: 95
[9]; [15]
  Plant response rating, Oat, Wild: 100
[9]; [19]
  Plant response rating, Oat, Wild: 100
[9]; [16]
  Plant response rating, Oat, Wild: 100
[9]; [17]
  Plant response rating, Oat, Wild: 85
[9]; [18]
  Plant response rating, Oat, Wild: 90
[9]; [20]
  Plant response rating, Oat, Wild: 95
[9]; Preemergence, scale 0 to 100
  Oat, Wild plant response rating: 60
[10]; postemergence, 0-100 scale
  Nutsedge, Yellow plant response rating: 0
[10]; [15]
  Plant response rating, Nutsedge, Yellow: 0
[10]; [19]
  Plant response rating, Nutsedge, Yellow: 0
[10]; [16]
  Plant response rating, Nutsedge, Yellow: 0
[10]; [17]
  Plant response rating, Nutsedge, Yellow: 0
[10]; [18]
  Plant response rating, Nutsedge, Yellow: 0
[10]; [20]
  Plant response rating, Nutsedge, Yellow: 0
[10]; Preemergence, scale 0 to 100
  Nutsedge, Yellow plant response rating: 0
[11]; postemergence, 0-100 scale
  Corn plant response rating: 0
[11]; [15]
  Plant response rating, Corn: 0
[11]; [19]
  Plant response rating, Corn: 100
[11]; [16]
  Plant response rating, Corn: 100
[11]; [17]
  Plant response rating, Corn: 75
[11]; [21]
  Plant response rating, Corn: 85
[11]; [20]
  Plant response rating, Corn: 95
[11]; Preemergence, scale 0 to 100
  Corn plant response rating: 55
[12]; postemergence, 0-100 scale
  Lambsquarters plant response rating: 0
[12]; [15]
  Plant response rating, Lambsquarters: 0
[12]; [19]
  Plant response rating, Lambsquarters: 0
[12]; [16]
  Plant response rating, Lambsquarters: 0
[12]; [17]
  Plant response rating, Lambsquarters: 0
[12]; [21]
  Plant response rating, Lambsquarters: 0
[12]; [20]
  Plant response rating, Lambsquarters: 0
[12]; Preemergence, scale 0 to 100
  Lambsquarters plant response rating: 0
[13]; [22]
  Plant response rating, Galium: 0
[13]; 31 g ai/ha, 0 to 100 scale, 0 no effect, 100 complete control
  Plant response rating, Galium: 0
[13]; 62 g ai/ha, scale 0 to 100
  Plant response rating, Galium: 0
[13]; 8 g ai/ha, scale 0 to 100
  Galium plant response rating: 0
[14]; postemergence, 0-100 scale
  Foxtail, Green plant response rating: 85
[14]; [15]
  Plant response rating, Foxtail, Green: 95
[14]; [19]
  Plant response rating, Foxtail, Green: 100
[14]; [16]
  Plant response rating, Foxtail, Green: 100
[14]; [17]
  Plant response rating, Foxtail, Green: 100
[14]; [21]
  Plant response rating, Foxtail, Green: 100
[14]; [20]
  Plant response rating, Foxtail, Green: 100
[14]; Preemergence, scale 0 to 100
  Foxtail, Green plant response rating: 90

— patent publication US20100267561A1, “HERBICIDAL PYRIDAZINONE DERIVATIVES” (priority 2007, published 2010)
